Measurements reported in ChEMBL document CHEMBL5728559, “Alkylphenyl compounds” (2021).

Legend:
[1] = target: Sphingosine 1-phosphate receptor 1 (Homo sapiens, UniProt P21453); experiment: S1P1 Binding Assay: Membranes were prepared from CHO cells expressing human S1P1. Cells pellets (1×10^9 cells/pellet) were suspended in buffer containing 20 mM HEPES (4-(2-hydroxyethyl)-1-piperazineethanesulfonic acid), pH 7.5, 50 mM NaCl, 2 mM EDTA (Ethylenediamine tetraacetic acid) and Protease Inhibitor cocktail (Roche), and disrupted on ice using the Polytron homogenizer. The homogenate was centrifuged at 20,000 rpm (48,000 g) and the supernatant was discarded. The membrane pellets were resuspended in buffer containing 50 mM HEPES, pH 7.5, 100 mM NaCl, 1 mM MgCl2, 2 mM EDTA and stored in aliquots at −80° C. after protein concentration determination.Membranes (2 μg/well) and 0.03 nM final concentration of 33P-S1P ligand (1 mCi/ml, Perkin Elmer or American Radiolabeled Chemicals) diluted in assay buffer (50 mM HEPES, pH7.4, 5 mM MgCl2, 1 mM CaCl2, 0.5% fatty acid free BSA(bovine serum albumin), 1 mM NaF) were added to the compound plates (384 Falcon v-bottom plate (0.5 μl/well in a 11 point, 3-fold dilution). Binding was performed for 45 minutes at room temperature, terminated by collecting the membranes onto 384-well Millipore FB filter plates, and radioactivity was measured by TOPCOUNT®. The competition data of the test compounds over a range of concentrations was plotted as percentage inhibition of radioligand specific binding. […]
[2] = target: Sphingosine 1-phosphate receptor 3 (Homo sapiens, UniProt Q99500); experiment: Receptor [35S] GTPgammaS Binding Assays: Compounds were loaded in a 384 Falcon v-bottom plate (0.5 μL/well in a 11 point, 3-fold dilution). Membranes prepared from S1P1/CHO cells or EDG3-Gal5-bla HEK293T cells (EDG3 equivalent S1P3) were added to the compound plate (40 μL/well, final protein 3 μg/well) with MULTIDROP®. [35S]GTP (1250 Ci/mmol, Perkin Elmer) was diluted in assay buffer: 20 mM HEPES, pH7.5, 10 mM MgCl2, 150 mM NaCl, 1 mM EGTA(ethylene glycol tetraacetic acid), 1 mM DTT (dithiothreitol), 10 μM GDP, 0.1% fatty acid free BSA, and 10 μg/ml Saponin to 0.4 nM. 40 μL of the [35S] GTP solution was added to the compound plate with a final concentration of 0.2 nM. The reaction was kept at room temperature for 45 min. At the end of incubation, all the mixtures in the compound plate were transferred to Millipore 384-well FB filter plates via the VELOCITY11® Vprep liquid handler. The filter plate was washed with water 4 times by using the manifold Embla plate washer and dried at 60° C. for 45 min. MicroScint 20 scintillation fluid (30 μL) was added to each well for counting on the Packard TOPCOUNT®. EC50 is defined as the agonist concentration that corresponds to 50% of the Ymax (maximal response) obtained for each individual compound tested.A smaller value for GTPγS S1P1 EC50 value indicated greater activity for the compound in the GTPγS S1P1 binding assay. […]
Sequence of Sphingosine 1-phosphate receptor 3 (Q99500 whole entry): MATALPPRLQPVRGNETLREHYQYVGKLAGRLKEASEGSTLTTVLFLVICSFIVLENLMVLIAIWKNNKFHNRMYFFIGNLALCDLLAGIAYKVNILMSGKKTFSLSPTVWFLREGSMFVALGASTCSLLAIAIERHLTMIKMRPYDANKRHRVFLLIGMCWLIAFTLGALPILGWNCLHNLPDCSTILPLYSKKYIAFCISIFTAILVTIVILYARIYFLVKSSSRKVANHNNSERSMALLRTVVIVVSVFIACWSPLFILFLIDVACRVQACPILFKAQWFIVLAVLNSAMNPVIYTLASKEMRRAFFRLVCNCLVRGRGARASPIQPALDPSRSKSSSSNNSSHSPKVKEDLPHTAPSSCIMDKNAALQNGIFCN

Sequence of Sphingosine 1-phosphate receptor 1 (P21453 whole entry): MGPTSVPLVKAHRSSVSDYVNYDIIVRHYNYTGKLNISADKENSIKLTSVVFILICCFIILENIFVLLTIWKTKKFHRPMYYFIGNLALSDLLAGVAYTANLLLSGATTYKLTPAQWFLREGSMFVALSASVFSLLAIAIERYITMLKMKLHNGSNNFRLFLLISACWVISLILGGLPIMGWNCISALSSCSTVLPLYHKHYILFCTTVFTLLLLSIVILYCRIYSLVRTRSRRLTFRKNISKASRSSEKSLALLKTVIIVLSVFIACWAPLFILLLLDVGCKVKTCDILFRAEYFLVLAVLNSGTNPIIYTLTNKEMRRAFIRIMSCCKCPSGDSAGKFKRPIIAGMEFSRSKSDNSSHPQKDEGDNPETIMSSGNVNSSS

- EC50 [1]: 14.4 µM
- EC50 [2]: > 60 µM
SMILES: CCCCCCCCc1cc(C)c(N2CCC(N)(COP(=O)(O)O)C2=O)c(C)c1 (configuration not stated)
